Several values for one entry are separate records, joined by “and”; a condition that tells them apart may be missing. Equal values may be shown once.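 Step 1: Grow cells in 96-well plates. Step 2: Expose to compound for 48 hours at 5 concentrations. Step 3: Interpolate endpoints linearly; if unreached, use highest concentration. At the GI50, growth is halved. TGI denotes the concentration required for complete inhibition of growth.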
What was measured:
Assay in all cases: DTP human tumour cell line panel, 48 h
COLO 205 colon = system: COLO 205 colon
UACC-62 melanoma = system: UACC-62 melanoma
SK-MEL-2 melanoma = system: SK-MEL-2 melanoma
BT-549 breast = system: BT-549 breast
OVCAR-8 ovarian = system: OVCAR-8 ovarian
SF-295 CNS = system: SF-295 CNS
RXF 393 renal = system: RXF 393 renal
IGROV1 ovarian = system: IGROV1 ovarian
UO-31 renal = system: UO-31 renal
A498 renal = system: A498 renal

SMILES | GI50 (COLO 205 colon) [µM] | TGI (COLO 205 colon) | GI50 (UACC-62 melanoma) [µM] | TGI (UACC-62 melanoma) | GI50 (SK-MEL-2 melanoma) [µM] | TGI (SK-MEL-2 melanoma) | GI50 (BT-549 breast) [µM] | TGI (BT-549 breast) [µM] | GI50 (OVCAR-8 ovarian) [µM] | TGI (OVCAR-8 ovarian) | GI50 (SF-295 CNS) [µM] | TGI (SF-295 CNS) | GI50 (RXF 393 renal) [µM] | TGI (RXF 393 renal) | GI50 (IGROV1 ovarian) [µM] | TGI (IGROV1 ovarian) [µM] | GI50 (UO-31 renal) [µM] | TGI (UO-31 renal) | GI50 (A498 renal) [µM] | TGI (A498 renal)
O=C(c1ccccc1)c1c(NCC(O)CN2CCOCC2)n(Cc2ccccc2)c(=O)n(Cc2ccccc2)c1=O (stereo not given) | 7.61 | > 39.1 µM | 36.7 | > 100 µM | > 66.4 | > 100 µM | 29.3 | > 100 | 48.9 | > 100 µM | 36.2 | > 100 µM | 25.3 | > 94 µM | 38.5 | > 100 | 34.5 | > 100 µM | 27.5 | > 88.8 µM
Cc1cc(O)c(C2=NN(c3ccc(S(N)(=O)=O)cc3)C(c3ccc(Cl)cc3)C2)c(C)c1Cl (stereo not given) | 1.69 | 3.31 µM | 3.49 | 15.1 µM | 11.9 | 27.6 µM | 13.1 | 27.7 | 5.75 | 21.6 µM | 16 | 31.6 µM | 5.83 | 21.1 µM | 6.19 | 22.3 | 3.78 | 19.2 µM | 6.97 | 19.3 µM
c1cncc(CNCc2cccnc2)c1 | – | > 100 µM | – | > 100 µM | – | > 100 µM | – | > 100 | – | > 100 µM | – | > 100 µM | – | > 100 µM | – | > 100 | – | > 100 µM | – | > 100 µM
CN(C)c1nc2ccccc2c2c1c1c(n2Cc2ccccc2)-c2ccccc2C1=O | > 100 | > 100 µM | > 100 | > 100 µM | > 100 | > 100 µM | > 100 | > 100 | > 100 | > 100 µM | > 100 | > 100 µM | > 100 | > 100 µM | 27.2 | > 100 | > 100 | > 100 µM | > 100 | > 100 µM
O=C(Oc1ccc(CO[N+](=O)[O-])cc1)c1ccccc1 | 0.128 | 0.301 µM | 0.169 | 0.396 µM | 0.162 | 0.322 µM | 0.139 | 0.27 | 0.153 | 0.288 µM | 0.194 | 0.631 µM | 0.165 | 0.319 µM | 0.203 | 0.411 | 0.172 | 0.322 µM | 1.07 | 2.26 µM
CC(C)=CCC(OC(=O)C=C(C)C)C1=CC(=O)c2c(O)ccc(O)c2C1=O (stereo not given) | 0.751 | 2.12 µM and 1.37 µM | 1.67 | 3.1 µM and 2.4 µM | 2.97 | 12.1 µM and 5.85 µM | 0.59 | 1.98 | 2.27 | 7.19 µM and 2.98 µM | 2.15 | 20.9 µM and 6.13 µM | – | 0.533 µM and 0.467 µM | – | 4.42 | 0.993 | 5.49 µM and 7.74 µM | 20 | 39 µM and 5.39 µM
CSCCCNC(=O)c1ccc2c(c1)/C(=C/c1[nH]c(C)cc1C)C(=O)N2 | 0.943 | > 100 µM | 0.687 | > 100 µM | 0.356 | 4.42 µM | 2.7 | > 100 | 1.95 | > 100 µM | 2.15 | > 100 µM | 0.977 | 37.1 µM | 0.421 | > 100 | 0.347 | > 100 µM | 0.47 | 2.7 µM
C=C1CCC2(C#N)[C@H]3[C@H](CC[C@@H]2C)[C@@H](C)C[C@@H](CC(C)(C)NC(=O)CN2CCC2=O)[C@H]13 (stereo not given in full) | 2.56 | 13 µM | 6.54 | 20.1 µM | 15.8 | 35.6 µM | 2.96 | 17.3 | 4.94 | 38.1 µM | 3.27 | 13.4 µM | 11.5 | 28 µM | 6.03 | 23 | 10.2 | 77.1 µM | 9.03 | 53.1 µM
C1=C2CCCC3=Cc4ccccc4OC23Oc2ccccc21 | 2.24 | 5.04 µM | 2.91 | 82.5 µM | 4.31 | 25.6 µM | 3.73 | 73.7 | 4.04 | > 100 µM | 3.99 | > 100 µM | 2.85 | 8.77 µM | 5.36 | > 100 | 4.86 | > 100 µM | 2.76 | 13.1 µM
O=P1(S)OC[C@H]2O[C@@H]3[C@H](F)[C@@H]2OP(O)(=S)OC[C@H]2O[C@H]([C@H](F)[C@@H]2O1)n1cnc2c(ncnc21)NC/C=C/CNc1ncnc2c1ncn23 (stereo not given in full) | > 100 | > 100 µM | > 100 | > 100 µM | > 100 | > 100 µM | – | > 100 | > 100 | > 100 µM | > 100 | > 100 µM | 0.764 | > 100 µM | > 100 | > 100 | > 100 | > 100 µM | 0.543 | 11.5 µM
Cc1ccc(S(=O)(=O)c2nc(-c3ccccc3)oc2S(C)=O)cc1 (stereo not given) | 1.72 | 3.56 µM | 1.5 | 2.87 µM | 1.73 | 3.73 µM | 1.71 | 3.37 | 1.77 | 3.79 µM | 10 | 22.2 µM | 1.46 | 2.87 µM | – | – | 1.26 | 2.53 µM | 4.23 | 13.6 µM
CC1=Nc2ccccc2/C1=C\c1c(C)[nH]c2ccccc12 | – | 53.2 µM | – | 25.1 µM | – | 47.3 µM | – | 15.1 | – | 27 µM | – | 43 µM | – | 33.2 µM | – | 25.4 | – | 27.5 µM | – | 38 µM
O=c1[nH]c2nc(NC3CCOCC3)ncc2cc1Oc1ccc(F)cc1F | > 25 | > 25 µM | > 25 | > 25 µM | > 25 | > 25 µM | > 25 | > 25 | > 25 | > 25 µM | > 25 | > 25 µM | > 25 | > 25 µM | > 25 | > 25 | > 25 | > 25 µM | > 25 | > 25 µM

— PubChem BioAssay (NCI)
